Source: PMC5833749 (Cell Death & Disease, 2018)
Where “and” joins values, the source holds several entries; their conditions need not be identical. Equal values may be shown once. Entries after “also recorded” stand apart in the source; their conditions may differ. Read-outs that look alike come from different tables or passages of the source.

Assays:
L929sAhFas cells [1] = test: mTNF-induced RIPK1-dependent necroptosis; assay type: cell-based, murine
Description: (§1) Data represent mean values ±S.E.M., n = 6. […] Data represent mean values ±S.E.M. (g–l).
(§2) Data were analysed using the Columbus software package (PerkinElmer).

L929sAhFas cells [2] = test: High-content imaging of cell growth, nuclear area and nuclear roundness (cytokinesis defects); assay type: cell-based, murine; details: for Cytokinesis defects (nuclear roundness, nuclear area): 10 µM, 24 h
Description: as §1, §2

L929sAhFas cells [3] = test: Cellular screening of Tozasertib analogues for cytokinesis defects and inhibition of necroptosis; assay type: cell-based, murine; details: 3 µM, 0.5 h or 24 h pre-treatment
Description: Next, cells were left unstimulated or stimulated with mTNF (40 ng/mL) + zVAD.fmk (10 µM) for […]. Proliferation, nuclear area and cell death were quantified by staining the cells with propidium iodide (PI) (3 µM) and Hoechst (1 µM) for image analysis with BD pathway. […] Significance was analysed using repeated measurements data analysis. […] Cells were stimulated for 7 h with mTNF and 4 h with mTNF + zVAD.fmk. Data represent mean values ±S.E.M. (n = 2). […] Dose responses were included in the screening (b–c) assay conditions.
as §2

hAurora kinase B = target: T1, hAurora kinase B (Homo sapiens, UniProt Q96GD4); test: In vitro ADP-Glo kinase assay; assay type: biochemical; details: dose response, Fig. 3c
T1 construct: purchased Promega V9181
T1 sequence (Q96GD4 whole entry): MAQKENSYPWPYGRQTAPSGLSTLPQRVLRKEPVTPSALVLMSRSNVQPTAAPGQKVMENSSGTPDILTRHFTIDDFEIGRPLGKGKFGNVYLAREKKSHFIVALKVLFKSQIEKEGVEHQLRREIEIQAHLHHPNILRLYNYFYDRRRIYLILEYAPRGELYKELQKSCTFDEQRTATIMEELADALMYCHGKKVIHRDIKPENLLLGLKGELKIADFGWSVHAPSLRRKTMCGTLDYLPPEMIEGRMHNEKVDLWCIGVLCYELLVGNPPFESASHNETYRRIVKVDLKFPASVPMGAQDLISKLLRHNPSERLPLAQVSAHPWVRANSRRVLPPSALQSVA
Description: (§3) Compounds (concentrations as indicated) were co-incubated with recombinant hRIPK1 (100 nM) (produced in our laboratory), hAurora kinase A (25 nM) or hAurora kinase B (25 nM) (ADP-Glo^TM kinase assay + Aurora A/Aurora B kinase enzyme system, Promega, V9081 and V9181). For hRIPK1, the kinase assay buffer (2×) contains 50 mM HEPES pH 7.5, 30 mM MgCl2, 50 mM NaCl, 0.5 mg/mL BSA, 0.02% CHAPS and 1 mM DTT. For the Aurora kinases, the kinase assay buffer was used from the promega assay (V9081, V9181). Next, the in vitro ADP-Glo^TM kinase assay (Promega, V6930) was used to determine kinase activity. The assay was performed according to the manufacturer’s protocol. The primary kinase reaction was carried out for 4 h at room temperature and a 2:2:1 ratio of kinase reaction volume to ADP-Glo reagent volume to kinase detection reagent volume was used.

hAurora kinase A = target: T2, hAurora kinase A (Homo sapiens, UniProt O14965); test: In vitro ADP-Glo kinase assay; assay type: biochemical; details: dose response, Fig. 3b
T2 construct: purchased Promega V9081
T2 sequence (O14965 1-403): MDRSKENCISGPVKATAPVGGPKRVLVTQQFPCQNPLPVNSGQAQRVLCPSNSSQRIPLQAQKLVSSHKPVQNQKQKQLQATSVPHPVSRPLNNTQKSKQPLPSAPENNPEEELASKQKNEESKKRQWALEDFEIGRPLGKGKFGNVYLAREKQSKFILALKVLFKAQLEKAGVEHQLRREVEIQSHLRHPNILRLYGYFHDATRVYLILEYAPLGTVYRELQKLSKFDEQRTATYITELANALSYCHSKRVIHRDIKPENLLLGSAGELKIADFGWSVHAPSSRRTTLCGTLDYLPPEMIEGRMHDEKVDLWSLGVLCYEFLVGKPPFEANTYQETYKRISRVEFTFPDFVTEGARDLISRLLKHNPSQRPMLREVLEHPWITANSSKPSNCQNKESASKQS
Description: as §3

recombinant hRIPK1 = target: T3, recombinant hRIPK1 (Homo sapiens, UniProt Q13546); test: In vitro ADP-Glo kinase assay; assay type: biochemical; details: dose response, Fig. 3a
T3 construct: made in house
T3 sequence (Q13546 1-671): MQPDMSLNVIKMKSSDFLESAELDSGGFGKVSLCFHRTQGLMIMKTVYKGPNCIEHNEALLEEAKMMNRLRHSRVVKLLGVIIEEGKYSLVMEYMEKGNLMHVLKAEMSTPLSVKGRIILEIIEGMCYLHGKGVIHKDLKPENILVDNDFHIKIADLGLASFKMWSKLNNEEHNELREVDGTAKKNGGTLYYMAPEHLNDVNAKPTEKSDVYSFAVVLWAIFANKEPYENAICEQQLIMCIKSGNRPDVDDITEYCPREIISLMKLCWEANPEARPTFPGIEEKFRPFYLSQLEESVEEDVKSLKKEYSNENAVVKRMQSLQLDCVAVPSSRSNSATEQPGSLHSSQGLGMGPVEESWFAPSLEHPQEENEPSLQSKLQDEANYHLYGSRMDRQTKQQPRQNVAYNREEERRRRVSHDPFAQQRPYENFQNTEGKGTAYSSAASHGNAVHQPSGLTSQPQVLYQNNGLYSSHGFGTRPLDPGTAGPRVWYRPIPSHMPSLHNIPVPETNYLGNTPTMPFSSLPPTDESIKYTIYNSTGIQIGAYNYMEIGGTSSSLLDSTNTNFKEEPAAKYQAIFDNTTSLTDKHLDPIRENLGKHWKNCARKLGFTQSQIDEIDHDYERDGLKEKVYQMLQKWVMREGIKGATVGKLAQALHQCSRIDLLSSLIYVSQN
Description: as §3

L929sAhFas cells [4] = test: mTNF+zVAD.fmk-induced necroptosis (sensitising condition)
MEF cells = test: RIPK1-dependent apoptosis (hTNF+Tak1i); assay type: cell-based, murine; details: 10 µM, pre-treated 1 h, hTNF 20 ng/mL + Tak1i 1 µM
recombinant mRIPK3 = recombinant mRIPK3 (Mus musculus, UniProt Q9QZL0); test: In vitro ADP-Glo kinase assay; assay type: biochemical; details: 10 µM; mRIPK3 15 nM
recombinant mRIPK3, sequence (Q9QZL0 whole entry): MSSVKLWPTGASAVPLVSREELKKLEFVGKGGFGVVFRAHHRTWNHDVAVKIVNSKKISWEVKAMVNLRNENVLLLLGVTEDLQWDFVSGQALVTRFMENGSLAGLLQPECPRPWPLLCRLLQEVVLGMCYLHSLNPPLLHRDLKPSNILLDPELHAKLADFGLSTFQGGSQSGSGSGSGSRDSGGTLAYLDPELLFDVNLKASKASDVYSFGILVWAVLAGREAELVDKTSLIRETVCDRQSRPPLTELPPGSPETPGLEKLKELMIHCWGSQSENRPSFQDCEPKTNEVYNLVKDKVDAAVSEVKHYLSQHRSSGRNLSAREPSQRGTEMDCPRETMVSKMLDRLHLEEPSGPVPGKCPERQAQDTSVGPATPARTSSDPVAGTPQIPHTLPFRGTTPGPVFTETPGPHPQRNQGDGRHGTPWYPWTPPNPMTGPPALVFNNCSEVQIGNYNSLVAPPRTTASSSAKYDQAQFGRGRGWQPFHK
Description: Supplementary Figure 5. […] An in vitro ADP-Glo kinase assay using recombinant mRIPK3 (15 nM) (A) was performed. […] Data represent mean value ± S.E.M. of 3 independent experiment. One-way ANOVA with Tukey correction for multiple testing has been performed (**** p<0.0001 ).

L929sAhFas cells [5] = test: Clonogenic assay (colony-forming capacity); assay type: cell-based, murine
Description: […]. […] Data represent mean values ±S.E.M., n = 6. […] […]. […] Data represent mean values ±S.E.M. (g–l).
Next, treatment was removed and 50 cells/condition were seeded. After 10 days, cells were fixed with 4% PFA for 10 min. After fixation, cells were stained with a 0.01% crystal violet solution for 1 h. Cells were washed with PBS, dried overnight and images were taken. Colonies were counted using ImageJ.

L929sAhFas cells [6] = test: Cytotoxicity of the compound alone (% PI-negative cells); assay type: cell-based, murine; details: 10 µM or lower, 24 h
Description: Supplementary Figure 1. […] Data represent mean ± S.E.M. of 3 independent experiment. One-way Anova with Tukey correction for multiple testing has been performed.

[7] = system: endogenous Aurora A (Aur A) and B (Aur B); test: Immunoblot of autophosphorylation of endogenous Aurora A and B; assay type: cell-based, murine; details: 10 µM, 16 h
Description: Then, a clonogenic assay was performed to determine colony-forming capacity. Quantification was performed using ImageJ. […] Data represent mean values ±S.E.M., n = 6. […] Data represent mean values ±S.E.M. (g–l).
Antibodies used were anti-phospho-Aurora A (Thr288)/Aurora B (Thr232)/Aurora C (Thr198) (D13A11) (Cell Signaling, #2914, Danvers, MA, USA), anti-tubulin-HRP (abcam, ab21058, Cambridge, UK). After treatments, cells were washed twice with PBS and lysed with 2× Laemmli buffer directly. These samples were used for SDS-PAGE and immunoblotting. Tubulin was used as loading control.

HT29 cells = test: hTNF+Tak1i+zVAD.fmk-induced necroptosis
L929sAhFas cells [8] = test: RIPK1-independent apoptosis by agonistic anti-Fas antibody; assay type: cell-based, murine; details: 10 µM, pre-treated 1 h, agonistic anti-Fas antibody 250 ng/mL
[9] = pre-treated 1 h, mTNF 20 ng/mL 5 h
[10] = Mus musculus, read-out: Necroptosis IC50, Aurora inhibitor panel, dose-response 10-0.0022 µM, pre-treated 1 h, mTNF 20 ng/mL 5 h, nonlinear regression

Cc1csc(-c2nnc(Nc3ccc(Oc4ncccc4-c4ccnc(N)n4)cc3)c3ccccc23)c1 [AMG-900]
Inhibition of TNF-induced necroptosis by Aurora kinase inhibitors (in words) (L929sAhFas cells [1]; [9]): cannot inhibit necroptosis; also recorded: not able to protect

CCN(CCCOc1ccc2c(Nc3cc(CC(=O)Nc4cccc(F)c4)n[nH]3)ncnc2c1)CCOP(=O)(O)O [Barasertib]
Inhibition of TNF-induced necroptosis by Aurora kinase inhibitors (in words) (L929sAhFas cells [1]; [9]): not able to protect

CO[C@@H](C(=O)N1Cc2n[nH]c(NC(=O)c3ccc(N4CCN(C)CC4)cc3)c2C1)c1ccccc1 [Danusertib]
IC50 (L929sAhFas cells [1]; [10]): 13900 nM
Inhibition of TNF-induced necroptosis by Aurora kinase inhibitors (in words) (L929sAhFas cells [1]; [9]): not able to protect

CC(C)(C)C(=O)N1N=CC[C@H]1c1ccccc1 [GSK’963]
Cytokinesis defects (nuclear roundness, nuclear area) (L929sAhFas cells [2]): did not affect cytokinesis

O=C(O)c1ccc(Nc2ncc3c(n2)-c2ccc(Cl)cc2C(c2c(F)cccc2F)=NC3)cc1 [MLN-8054]
Cytokinesis and proliferation in the analogue screening (in words) (L929sAhFas cells [3]): cytokinesis inhibition
Necroptosis in the analogue screening (in words) (L929sAhFas cells [3]; mTNF 40 ng/mL + zVAD.fmk 10 µM 3 h): without affecting RIPK1-dependent cell death

CN1C(=O)NC(Cc2c[nH]c3c(Cl)cccc23)C1=O (centres unmarked) [Nec-1s, Necrostatin-1s]
IC50 (L929sAhFas cells [1]; Aurora inhibitor panel, dose-response 10-0.0022 µM, pre-treated 1 h, mTNF 20 ng/mL 5 h, nonlinear regression, read-out: Necroptosis IC50): 367 nM
IC50 (L929sAhFas cells [1]; pre-treatment 1 h, mTNF 20 ng/mL 5 h, Probit analysis, read-out: Necroptosis L929-mTNF IC50): 149 nM
Inhibition of hAur B kinase activity (in words) (hAurora kinase B): only inhibits recombinant hRIPK1
Inhibition of hAur A kinase activity (in words) (hAurora kinase A): only inhibits recombinant hRIPK1
Inhibition of hRIPK1 kinase activity (in words) (recombinant hRIPK1): only inhibits recombinant hRIPK1
IC50 (L929sAhFas cells [4]; read-out: Necroptosis L929-mTNF+zVAD IC50, pre-treatment 1 h, necroptosis treatment 3 h, Probit analysis): 240 nM
Cytokinesis defects (nuclear roundness, nuclear area) (L929sAhFas cells [2]): does not result in cytokinesis defects

O=C(Nc1cccc(Cl)c1)Nc1ncc(CCNc2ncnc3ccsc23)s1 [SNS-314]
IC50 (L929sAhFas cells [1]; [10]): 400 nM
IC50 (L929sAhFas cells [1]; read-out: Necroptosis IC50, Aurora inhibitor panel, dose-response 10-0.0022 µM, pre-treated 1 h, mTNF 20 ng/mL 5 h, nonlinear regression): 399 nM

Cc1cc(Nc2cc(N3CCN(C)CC3)nc(Sc3ccc(NC(=O)C4CC4)cc3)n2)[nH]n1 [Tozasertib]
Protection against TNF-induced RIPK1-dependent necroptosis over time (L929sAhFas cells [1]; 3 µM, pre-treated 1 h, mTNF 20 ng/mL): protects
IC50 (L929sAhFas cells [1]; Mus musculus, L929, read-out: IC50 L929 TNF-induced necroptosis as given in the Discussion, condition not specified): 700 nM
IC50 (L929sAhFas cells [1]; read-out: Necroptosis L929-mTNF IC50, pre-treatment 1 h, mTNF 20 ng/mL 5 h, Probit analysis): 550 nM and 554 nM
Inhibition of RIPK1-dependent apoptosis (MEF cells): inhibits RIPK1-dependent apoptosis
Inhibition of recombinant mRIPK3 kinase activity (recombinant mRIPK3): does not inhibit; also recorded: not able to inhibit
Protective effect against necroptosis at 10 µM (L929sAhFas cells [4]; 10 µM, mTNF+zVAD.fmk 3 h): partially lost
Protection against necroptosis in L929sAhFas (in words) (L929sAhFas cells [4]; pre-treated 1 h, stimulation 3 h, sensitised condition (mTNF+zVAD.fmk) per text): protect against necroptosis
Concentration from which colony formation is impaired (L929sAhFas cells [5]; 24 h treatment): ≥ 0.2 µM
IC50 (L929sAhFas cells [5]; Mus musculus, 24 h, read-out: Clonogenicity IC50): 122 nM
Toxicity of the compound on itself (L929sAhFas cells [6]): not cytotoxic; also recorded: not toxic
Autophosphorylation of endogenous Aurora A and B [7]: inhibition of autophosphorylation
Protective effect against necroptosis at 10 µM (HT29 cells; 10 µM, hTNF+Tak1i+zVAD.fmk 16 h): partially lost
Protection against necroptosis in HT29 (in words) (HT29 cells; pre-treated 1 h, hTNF+Tak1i+zVAD.fmk 17 h): protect against necroptosis
Mean nuclear area at highest concentration (L929sAhFas cells [2]; 48 h, highest concentration): 250 µm^2
Mean nuclear roundness at highest concentration (L929sAhFas cells [2]; 48 h, 0 = straight line, 1 = perfect circle): 0.80
EC50 (L929sAhFas cells [2]; Mus musculus, 48 h, read-out: Nuclear area (values represent EC50), compound treatment 48 h, Probit analysis): 554 nM
IC50 (L929sAhFas cells [2]; Mus musculus, 48 h, read-out: Nuclear roundness IC50, compound treatment 48 h, Probit analysis): 1640 nM
EC50 (L929sAhFas cells [2]; Mus musculus, read-out: Cytokinesis EC50 (nuclear area), Aurora inhibitor panel, dose-response 10-0.0022 µM, pre-treated 1 h, mTNF 20 ng/mL 5 h, nonlinear regression): 591 nM
Inhibition of RIPK1-independent (Fas-mediated) apoptosis (L929sAhFas cells [8]): no inhibition is observed
